From article PMC2896318 (Biochemistry, 2009)
Where two headings read alike, the source gives them in different places.

What was measured:
[1] = target: T1, Enterobacter cloacae P99 β-lactamase (Enterobacter cloacae, UniProt P05364); conditions: for Ki: read-out: P99 K1
[2] = target: Escherichia coli W3310 TEM-2 β-lactamase (Escherichia coli, UniProt P62593, Q37K); test: Inhibition and turnover kinetics with TEM-2 β-lactamase; type: biochemical; conditions: for TEM k2 × 10^3 (deacylation rate constant): values are k2 × 10^3, pH 7.5, 25 °C
[3] = Spontaneous hydrolysis of diaroyl phosphates in buffer; type: physicochemical; conditions: values are ko × 10^6; 25 mM MOPS buffer, pH 7.5, 25 °C
[4] = target: T1, Enterobacter cloacae P99 β-lactamase; conditions: previously determined ratio; cited from earlier work
OXA-1 β-lactamase = OXA-1 β-lactamase (Escherichia coli, UniProt P13661); test: Inhibition of class D β-lactamase OXA-1; type: biochemical
Chain of OXA-1 β-lactamase (P13661 26-276): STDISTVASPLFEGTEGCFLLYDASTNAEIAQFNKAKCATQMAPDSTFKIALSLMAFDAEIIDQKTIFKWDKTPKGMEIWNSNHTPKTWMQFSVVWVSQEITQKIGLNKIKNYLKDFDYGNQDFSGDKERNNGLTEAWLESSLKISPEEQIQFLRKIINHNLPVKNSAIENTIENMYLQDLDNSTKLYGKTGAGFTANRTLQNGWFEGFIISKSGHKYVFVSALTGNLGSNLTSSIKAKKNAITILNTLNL

[5] = target: T1, Enterobacter cloacae P99 β-lactamase; test: biochemical
[6] = high inhibitor concentrations (>100 μM)
[7] = footnote b: calculated from ki = k2/Ki

T1 sequence (P05364 21-381): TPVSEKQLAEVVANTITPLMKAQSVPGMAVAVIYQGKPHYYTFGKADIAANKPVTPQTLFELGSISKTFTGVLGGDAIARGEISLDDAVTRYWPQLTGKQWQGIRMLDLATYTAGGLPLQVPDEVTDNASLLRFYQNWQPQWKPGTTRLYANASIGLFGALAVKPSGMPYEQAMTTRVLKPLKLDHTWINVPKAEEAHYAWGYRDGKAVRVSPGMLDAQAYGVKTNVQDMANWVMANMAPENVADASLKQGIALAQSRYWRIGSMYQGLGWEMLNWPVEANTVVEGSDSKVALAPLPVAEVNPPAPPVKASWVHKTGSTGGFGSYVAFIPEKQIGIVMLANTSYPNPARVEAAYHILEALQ

| Compound | P99 k2 × 10^3 (deacylation rate constant) ([1]; pH 7.5) [s^−1] | P99 ki (acylation rate constant) ([1]; pH 7.5) [s⁻¹ mM⁻¹] | Ki [1] [nM] | k3 (rearrangement of EI to more inert EI′, Scheme 5) [2, 6] | k4 (breakdown of EI′ to free enzyme, Scheme 5) [2, 6] [s⁻¹] | TEM ki (acylation rate constant) ([2]; pH 7.5, 20 mM MOPS, 25 °C, from progress curve fits) [s⁻¹ mM⁻¹] | Ki ([2]; read-out: TEM Ki, footnote a: calculated from Ki = k2/ki) [nM] | TEM k2 × 10^3 (deacylation rate constant) [2] [s^−1] | ko × 10^6 (spontaneous hydrolysis rate constant) [3] [s^−1] | k3/k2 (methanol vs water partitioning of acyl-enzyme) [4] | P99 ki (acylation rate constant) [1] | TEM ki (acylation rate constant) [2, 7] | Ki (OXA-1 β-lactamase; read-out: Ki for OXA-1, class D β-lactamase) [nM] | P99 k2 × 10^3 (deacylation rate constant) ([1]; values are k2 × 10^3, pH 7.5, 25 °C) [s^−1] | Ki (OXA-1 β-lactamase) [nM] | Ki [5] [nM] |
| --- | --- | --- | --- | --- | --- | --- | --- | --- | --- | --- | --- | --- | --- | --- | --- | --- |
| O=C(OP(=O)(O)OC(=O)c1ccccc1)c1ccccc1 [compound 5, dibenzoyl phosphate] | 9.3 ± 0.2 | 7 ± 1 | 1330 | (3.3 ± 0.7) × 10^−4 s^−1 | 0.00015 | 0.5 ± 0.1 | 76000 | 38 ± 3 | 0.78 | 23.6 | – | – | – | – | – | – |
| O=C(OP(=O)([O-])OC(=O)c1cc2ccccc2s1)c1cc2ccccc2s1.[Na+] [compound 11, Sodium bis[benzo(b)thiophenecarbonyl] phosphate] | 211 ± 6 | – | 3 | – | – | – | – | 79 ± 2 | 54.1 | – | 69600 ^b s^−1mM^−1 | 53 ^b s^−1mM^−1 | 60 | – | – | – |
| O=C(OP(=O)([O-])OC(=O)c1cc2ccccc2o1)c1cc2ccccc2o1.[Na+] [compound 12, Sodium bis[2-benzo(b)furancarbonyl] phosphate] | – | – | – | – | – | – | – | 74 ± 1 | 285 | – | – | 1.8 ^b s^−1mM^−1 | – | 354 ± 26 | 14200 | 1300 ± 300 |
